Laboratory results as given in ChEMBL document CHEMBL4219203, “Design, synthesis and biological evaluation of seco-A-pentacyclic triterpenoids-3,4-lactone as potent non-nucleoside HBV inhibitors” (Bioorg Med Chem Lett, 2018).
Activity calls are given as the source filed them. The rule behind the calls is not given here.

What was measured:
Hepatitis B virus [1] = assay: Antiviral activity against Hepatitis B virus infected in human HepG2.215 cells assessed as inhibition of HBeAg secretion after 3 days by ELISA; type: functional, organism-based; settings: HepG2.2.15, 72 h
Hepatitis B virus [2] = assay: Antiviral activity against Hepatitis B virus infected in human HepG2.215 cells assessed as inhibition of HBeAg secretion by measuring FITC-labeled monoclonal mouse HBeAg antibody non-labeled cells level at 25 uM after 3 days by flow cytometry (reference value: 0.5%); type: functional; settings: HepG2.2.15, 72 h
[3] = Selectivity index, ratio of CC50 for human HepG2.215 cells to IC50 for Hepatitis B virus infected in human HepG2.215 cells assessed as reduction in covalently closed circular DNA level; type: toxicity, cell-based; settings: HepG2.2.15 cells (Hepatitis B virus infected), read-out: Ratio CC50/IC50
[4] = Selectivity index, ratio of CC50 for human HepG2.215 cells to IC50 for Hepatitis B virus infected in human HepG2.215 cells assessed as inhibition of HBsAg secretion; type: toxicity, cell-based; settings: HepG2.2.15 cells (Hepatitis B virus infected), read-out: Ratio CC50/IC50
[5] = Cytotoxicity against human HepG2.215 cells assessed as reduction in cell viability after 3 days by MTT assay; type: cell-based, HepG2 2.2.15; settings: HepG2.2.15 cells
[6] = Selectivity index, ratio of CC50 for human HepG2.215 cells to IC50 for Hepatitis B virus infected in human HepG2.215 cells assessed as inhibition of HBeAg secretion; type: toxicity, cell-based; settings: HepG2.2.15 cells (Hepatitis B virus infected), read-out: Ratio CC50/IC50
Hepatitis B virus [7] = assay: Antiviral activity against Hepatitis B virus infected in human HepG2.215 cells assessed as inhibition of HBeAg secretion by measuring FITC-labeled monoclonal mouse HBeAg antibody non-labeled cells level at 6.25 uM after 3 days by flow cytometry (reference value: 0.5%); type: functional; settings: HepG2.2.15, 72 h
Hepatitis B virus [8] = assay: Antiviral activity against Hepatitis B virus infected in human HepG2.215 cells assessed as inhibition of HBsAg secretion after 3 days by ELISA; type: functional, organism-based; settings: HepG2.2.15, 72 h
Hepatitis B virus [9] = assay: Antiviral activity against Hepatitis B virus infected in human HepG2.215 cells assessed as reduction in cellular viral DNA level at 25 uM after 9 days by real time QF-PCR analysis relative to control; type: functional; settings: for inhibition at 25 µM: HepG2.2.15, 216 h
Hepatitis B virus [10] = assay: Antiviral activity against Hepatitis B virus infected in human HepG2.215 cells assessed as inhibition of HBeAg secretion by measuring FITC-labeled monoclonal mouse HBeAg antibody non-labeled cells level at 12.5 uM after 3 days by flow cytometry (reference value: 0.5%); type: functional; settings: HepG2.2.15, 72 h
Hepatitis B virus [11] = assay: Antiviral activity against Hepatitis B virus infected in human HepG2.215 cells assessed as reduction in covalently closed circular DNA level after 9 days by real time QF-PCR analysis; type: functional, organism-based; settings: HepG2.2.15, 216 h

IC50 (Hepatitis B virus [1]) [µM]	IC50 (Hepatitis B virus [8]) [µM]	IC50 (Hepatitis B virus [11]) [µM]	SMILES	inhibition at 25 µM (Hepatitis B virus [2]) [%]	selectivity ratio [3]	selectivity ratio [4]	CC50 at 72 h [5] [µM]	selectivity ratio [6]	inhibition at 6.25 µM (Hepatitis B virus [7]) [%]	inhibition at 25 µM (Hepatitis B virus [9]) [%]	inhibition at 12.5 µM (Hepatitis B virus [10]) [%]	inhibition (Hepatitis B virus [9])
112	340		CC1(C)CC[C@@]23CC[C@]4(C)[C@@](OC2=O)([C@@H]3C1)[C@@H](O)C[C@@H]1[C@@](C)(CCC(=O)O)[C@H](C(C)(C)O)CC[C@]14C			1.32	452	4.04				Active
384	406		C[C@H]1[C@H](C)CC[C@]2(C(=O)O)CC[C@]3(C)C(=CC[C@@H]4[C@@](C)(CCC(=O)O)[C@H](C(C)(C)O)CC[C@]43C)[C@H]12			1.13	461	1.2				
257	259	12.3	CC(C)(O)[C@@H]1CC[C@]2(C)[C@H](C(=O)C=C3[C@@H]4C[C@@](C)(C(=O)O)CC[C@]4(C)CC[C@]32C)[C@@]1(C)CCC(=O)O		166	7.87	2040	7.95		91.4		
814	1360		CC1(C)CC[C@]2(C(=O)O)CC[C@]3(C)C(=CC[C@@H]4[C@@]5(C)CC[C@H](O)C(C)(C)[C@@H]5CC[C@]43C)[C@@H]2C1 [OLEANOLIC_ACID]			0.53	731	0.9				
925	883		CC1(C)CC[C@]2(C(=O)O)CC[C@]3(C)C(Br)(CC[C@@H]4[C@@]5(C)CCC(=O)C(C)(C)[C@@H]5CC[C@]43C)[C@@H]2C1 (some centres not stated)			0.11	100	0.1				
0.86	360	32.7	CC1(C)CC[C@]2(C(=O)O)CC[C@]3(C)C(=CC[C@@H]4[C@@]5(C)CCC(=O)OC(C)(C)[C@@H]5CC[C@]43C)[C@@H]2C1	34	14.5	1.32	477	> 200	6.2	81.6	10.6	
149	286		CC1(C)CC[C@@]23CC[C@]4(C)[C@@](OC2=O)([C@@H]3C1)[C@@H](O)C[C@@H]1[C@@]2(C)CCC(=O)OC(C)(C)[C@@H]2CC[C@]14C			1.57	540	3.03				Active
92.3	305		CC1(C)CC[C@]2(C(=O)O)CC[C@]3(C)C(Br)(CC[C@@H]4[C@@]5(C)CCC(=O)OC(C)(C)[C@@H]5CC[C@]43C)[C@@H]2C1 (some centres not stated)			1.59	485	5.21				

Second part, the compound before the results:

SMILES	IC50 (Hepatitis B virus [1]) [µM]	IC50 (Hepatitis B virus [8]) [µM]	IC50 (Hepatitis B virus [11]) [µM]	inhibition at 25 µM (Hepatitis B virus [2]) [%]	selectivity ratio [3]	selectivity ratio [4]	CC50 at 72 h [5] [µM]	selectivity ratio [6]	inhibition at 6.25 µM (Hepatitis B virus [7]) [%]	inhibition at 25 µM (Hepatitis B virus [9]) [%]	inhibition at 12.5 µM (Hepatitis B virus [10]) [%]	inhibition (Hepatitis B virus [9])
CC1(C)CC[C@]2(C(=O)O)CC[C@]3(C)C(=CC(=O)[C@@H]4[C@@]5(C)CCC(=O)OC(C)(C)[C@@H]5CC[C@]43C)[C@@H]2C1	0.14	321	33.5	33.5	17.4	1.81	583	> 200	7.7	82.6	7.8	
CC1(C)OC(=O)CC[C@]2(C)[C@H]3C(=O)C=C4[C@@H]5C[C@@](C)(C(=O)O)CC[C@]5(C)CC[C@@]4(C)[C@]3(C)CC[C@@H]12	81.9	171				3.2	546	6.67				Active
C[C@H]1OC(=O)CC[C@@H]2[C@]1(C)CC[C@H]1[C@@]2(C)CC[C@@]2(C)[C@@H]3CC(C)(C)CC[C@]3(C)CC[C@]12C [FRIEDELIN-3,4-LACTONE]	790	765				0.63	482	0.61				
C[C@H]1C(=O)CC[C@@H]2[C@]1(C)CC[C@H]1[C@@]2(C)CC[C@@]2(C)[C@@H]3CC(C)(C)CC[C@]3(C)CC[C@]12C [FRIEDELINE]	1250	1210				1.48	1790	1.43				
CC1(C)[C@@H](O)CC[C@]2(C)[C@H]3C(=O)C=C4[C@@H]5C[C@@](C)(C(=O)O)CC[C@]5(C)CC[C@@]4(C)[C@]3(C)CC[C@@H]12 [ENOXOLONE]	806	510				1.27	650	0.81				
C[C@H]1[C@H](C)CC[C@]2(C(=O)O)CC[C@]3(C)C(=CC[C@@H]4[C@@]5(C)CC[C@H](O)C(C)(C)[C@@H]5CC[C@]43C)[C@H]12 [URSOLIC ACID]	897	1360				1.13	1540	1.72				
C[C@H]1[C@H](C)CC[C@]2(C(=O)O)CC[C@]3(C)C(=CC[C@@H]4[C@@]5(C)CCC(=O)OC(C)(C)[C@@H]5CC[C@]43C)[C@H]12	176	284				1.43	406	2.3				
Nc1ccn([C@H]2CS[C@@H](CO)O2)c(=O)n1	1440	917					876			92.8		
